For two compounds, Kd and Ki results are on record in paper PMC10646112, “Mechanistic insights into glycoside 3-oxidases involved in C-glycoside metabolism in soil microorganisms” (Nature Communications, 2023).

Assay [1] addresses T1, PsG3Ox (Pseudarthrobacter siccitolerans, UniProt A0A024H8G7). As to the kind of experiment: tryptophan fluorescence quenching titration of apo-enzyme; crystal structure. The class given is biochemical. Further details: gene ARTSIC4J27_4061; Apo-PsG3Ox.
Assay [2] has as its target T1, PsG3Ox. The assay can be described thus: inhibition of D-Glc oxidation, steady-state kinetics (Lineweaver-Burk, secondary plot of slopes). Further details: gene ARTSIC4J27_4061. The class given is biochemical.

T1 sequence (A0A024H8G7 1-519): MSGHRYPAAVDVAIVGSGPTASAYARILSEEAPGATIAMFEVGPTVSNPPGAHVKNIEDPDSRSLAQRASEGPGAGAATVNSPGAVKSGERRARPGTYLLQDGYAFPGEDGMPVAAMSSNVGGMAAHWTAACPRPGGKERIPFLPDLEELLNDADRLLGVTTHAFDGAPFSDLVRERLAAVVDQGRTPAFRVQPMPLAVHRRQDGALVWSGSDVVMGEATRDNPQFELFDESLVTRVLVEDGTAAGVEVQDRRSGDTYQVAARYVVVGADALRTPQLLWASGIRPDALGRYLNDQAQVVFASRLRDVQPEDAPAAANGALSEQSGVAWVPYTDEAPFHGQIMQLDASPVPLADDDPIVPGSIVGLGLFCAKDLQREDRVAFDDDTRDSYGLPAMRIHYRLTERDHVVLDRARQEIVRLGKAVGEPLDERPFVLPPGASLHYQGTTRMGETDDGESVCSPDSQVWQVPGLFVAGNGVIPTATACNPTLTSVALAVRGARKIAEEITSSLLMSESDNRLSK

Broadly, the Kd is a measure of binding affinity in units of concentration. Low readings indicate higher affinity, high ones lower affinity. In the case of `Cc1cc2nc3c(=O)[nH]c(=O)nc-3n(C[C@H](O)[C@H](O)[C@H](O)COP(=O)(O)OP(=O)(O)OC[C@H]3O[C@@H](n4cnc5c(N)ncnc54)[C@H](O)[C@@H]3O)c2cc1C` [FAD], in assay [1], the Kd was 0.2 µM.

In general, Ki refers to the dissociation constant of the complex between target and ligand, obtained from inhibition or displacement. A higher Ki goes with weaker binding. `C[C@@H]1O[C@@H](OC[C@H]2O[C@@H](Oc3c(-c4ccc(O)c(O)c4)oc4cc(O)cc(O)c4c3=O)[C@H](O)[C@@H](O)[C@@H]2O)[C@H](O)[C@H](O)[C@H]1O` [rutin] gave a Ki in assay [2] of 100 µM.
